Laboratory results reported in article PMC9841531, “Indole Derivatives as New Structural Class of Potent and Antiproliferative Inhibitors of Monocarboxylate Transporter 1 (MCT1; SLC16A1)” (Journal of Medicinal Chemistry, 2022).

Assays:
Format in all cases: cell-based
[1] = system: A-549 cells; assay: cell cycle distribution analysis, PI flow cytometry; conditions: 5 μM, 24 h
Method: The antineoplastic agent 33 (5 μM) was used as a reference. […] Compound 24 caused a disruption of the cell cycle of A-549 cancer cells, indicated by a shift from the predominant G0/G1 phase (Figure 8A) to the apoptotic sub-G1 phase as well as the G2/M phase (Figure 8B). A similar G2/M arrest could be observed for reference compound 33 (Figure 8C); however, MCT1 inhibitor 24 led to a larger fraction of cells into the sub-G1 phase, indicating induced apoptosis. This experiment discovered that compound 24 inhibits cell proliferation, causing cell cycle arrest and, eventually, apoptosis. To confirm our findings, we conducted an apoptosis assay using compound 24.
A standard PI staining procedure was used as described earlier[44]−[46] to determine the effect of compounds 24 and 33 on cell cycle progression, followed by flow cytometry analysis (FACS Aria SORP and FACS Aria Fusion, BD Biosciences, Franklin Lakes, NJ). In brief, A-549 cells were seeded onto a 6-well plate (250,000 cells/well) and incubated for 24 h at 37 °C under a 5% CO2-humidified atmosphere before being observed under a microscope. The cells were treated with compound 24 (5 μM) or 33 (5 μM) and further incubated for 24 h at 37 °C under a 5% CO2-humidified atmosphere. Then, the cells were harvested and washed twice with cold PBS (Genetix Biotech Asia, New Delhi, India) before being fixed overnight in ice-cold 70% (v/v) ethanol at 4 °C. The cells were again washed two times with PBS and subsequently resuspended with RNase (100 μg/mL; HiMedia, Mumbai, India) and their DNA was stained with PI (40 μg/mL; Sigma-Aldrich, Mumbai, India) before being incubated in the dark for 10 min. The DNA content was measured at the Indian Institute of Technology Bombay (IITB, Mumbai, India) by applying flow cytometry.

[2] = target: ABCB1 (P-gp) (Homo sapiens, UniProt P08183); assay: daunorubicin assay, ABCB1-expressing A2780/ADR cells; conditions: human, ABCB1-expressing A2780/ADR cells, probe daunorubicin (3 μM final); relative to reference inhibitor 34 = 100%; read-out: maximal inhibition (Imax), ABCB1 daunorubicin
Sequence of ABCB1 (P-gp) (P08183 whole entry): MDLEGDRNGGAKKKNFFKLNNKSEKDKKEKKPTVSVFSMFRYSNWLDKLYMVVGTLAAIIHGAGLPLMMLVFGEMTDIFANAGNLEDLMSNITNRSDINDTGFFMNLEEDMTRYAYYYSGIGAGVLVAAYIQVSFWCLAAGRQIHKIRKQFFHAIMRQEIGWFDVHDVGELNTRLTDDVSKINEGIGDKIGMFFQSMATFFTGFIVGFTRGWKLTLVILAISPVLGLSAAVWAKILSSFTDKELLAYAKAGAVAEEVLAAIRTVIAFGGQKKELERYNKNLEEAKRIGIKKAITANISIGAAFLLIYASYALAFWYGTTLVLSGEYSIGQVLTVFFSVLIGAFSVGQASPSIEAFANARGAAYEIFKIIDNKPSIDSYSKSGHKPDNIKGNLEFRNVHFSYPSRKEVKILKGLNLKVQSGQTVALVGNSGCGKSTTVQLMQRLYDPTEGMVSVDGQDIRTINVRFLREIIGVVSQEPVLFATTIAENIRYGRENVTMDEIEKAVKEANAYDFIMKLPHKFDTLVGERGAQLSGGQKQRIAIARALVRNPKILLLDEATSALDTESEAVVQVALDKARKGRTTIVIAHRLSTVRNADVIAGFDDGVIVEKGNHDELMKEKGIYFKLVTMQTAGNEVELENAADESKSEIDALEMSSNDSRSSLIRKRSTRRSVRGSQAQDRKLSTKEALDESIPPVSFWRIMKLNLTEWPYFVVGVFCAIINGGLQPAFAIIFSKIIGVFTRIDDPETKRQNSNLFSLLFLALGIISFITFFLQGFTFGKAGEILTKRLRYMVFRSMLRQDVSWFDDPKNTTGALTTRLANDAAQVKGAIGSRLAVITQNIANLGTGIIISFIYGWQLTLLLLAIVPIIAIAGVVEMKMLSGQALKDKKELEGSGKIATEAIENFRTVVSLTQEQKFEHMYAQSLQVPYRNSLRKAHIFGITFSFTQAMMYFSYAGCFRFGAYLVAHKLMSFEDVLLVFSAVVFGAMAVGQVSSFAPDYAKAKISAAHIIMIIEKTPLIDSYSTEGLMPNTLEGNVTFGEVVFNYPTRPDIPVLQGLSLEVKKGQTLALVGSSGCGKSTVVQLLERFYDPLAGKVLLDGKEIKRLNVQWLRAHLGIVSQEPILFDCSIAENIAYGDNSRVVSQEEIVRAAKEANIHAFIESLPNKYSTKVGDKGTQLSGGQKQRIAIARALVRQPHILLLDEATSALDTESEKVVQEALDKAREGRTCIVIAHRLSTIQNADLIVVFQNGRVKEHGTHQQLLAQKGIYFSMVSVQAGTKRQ

[3] = target: ABCB1 (P-glycoprotein, P-gp) (Homo sapiens, UniProt P08183); assay: as above; conditions: human, ABCB1-expressing A2780/ADR cells, probe daunorubicin (3 μM final); relative to reference inhibitor 34 = 100%; read-out: maximal inhibition (Imax), ABCB1 daunorubicin
Sequence of ABCB1 (P-glycoprotein, P-gp) (P08183 whole entry): as above

| Compound | cells in G0/G1 phase [1] [%] | cells in G2/M phase [1] [%] | cells in S phase [1] [%] | cells in Sub-G1 phase [1] [%] | inhibition at 180 min [2] [%] | inhibition at 180 min [3] [%] |
| --- | --- | --- | --- | --- | --- | --- |
| COC(=O)/C(C#N)=C/c1cn(CC(=O)Nc2ccc(OC)cc2)c2ccccc12 [Compound 24, Methyl-2-cyano-3-(1-(2-((4-methoxyphenyl)amino)-2-oxoethyl)-1H-indol-3-yl) Acrylate] | 38.1 | 22.3 | 18.0 | 20.6 | 84 |  |
| COC(=O)/C(C#N)=C/c1cn(CC(=O)Nc2ccc(C)cn2)c2ccccc12 [Compound 30, Methyl-2-cyano-3-(1-(2-((5-methylpyridin-2-yl)amino)-2-oxoethyl)-1H-indol-3-yl) Acrylate] |  |  |  |  |  | 93.3 |
